In test [1] the test system is hypoxia inducible factor-1α (HIF-1α). Description: Liver fibrosis in vitro experiment, Western blot in LX-2 cells. To be noted: 2.5 mM, LX-2 cells (human hepatic stellate cell). It counts as cell-based. As for the experimental part: Human Hepatic Stellate cell line, LX-2, was purchased from Sigma-Aldrich (St Louis, MO, USA). The LX-2 cells were maintained in DMEM containing 2% fetal bovine serum (Life Technologies, Gaithersburg, MD, USA), 100 IU/ml penicillin, and 100 μg/ml streptomycin (Welgene, Daegu, South Korea).
(§1) To prepare whole cell lysate, cells were lysed with lysis buffer (1% NP-40, 0.25% sodium deoxycholate, 150 mM NaCl, 1 mM EDTA, 1% Triton X-100, 50 mM Tris-HCl (pH 7.4), 10% Glycerol) with protease inhibitor cocktail (Roche, Basel, Switzerland) and phosphatase inhibitors (NA3VO4 1 mM, NaF 100 mM). Then, protein concentration was measured using the Bicinchoninic acid (BCA) assay kit (Thermo Scientific, Waltham, MA). Whole cell or nuclear lysates were transferred onto polyvinylidene fluoride membranes (Merck Millipore, Billerica, MA, USA). After blocking in 5% non-fat milk (Bio-Rad, Hercules, CA, USA) for 1 h, the membranes were incubated overnight at 4° C. with primary antibody diluted in TBST containing 100 mM Tris-HCl (pH 7.5), 1.5 M NaCl, and 0.5% Tween-20 obtained from Sigma-Aldrich, to which 5% BSA and 0.1% sodium azide (Sigma-Aldrich) had been added. Specific primary antibodies to HIF-1α (1:1000), HIF-2α (1:1000), LDH-A (1:1000), LDH-B (1:1000), TLR-4 (1:1000), NF-κB (1:1000), VEGF (1:1000), α-tubulin (1:1000), Actin (1:1000), and GAPDH (1:5000). […]

Test [2] deals with hypoxia-mediated factors. As to the kind of experiment: Brain CID in vitro experiment, Western blot in SK-N-SH cells. It counts as cell-based. The following applies: 2.5 mM; SK-N-SH cells (human neuroblastoma); normoxia and hypoxia. How it is done: Human Brain cell line, SK-N-SH, was purchased from American Type Culture Collection (Manassas, VA, USA). The SK-N-SH cells were maintained in RPMI1640 containing 10% fetal bovine serum (Life Technologies, Gaithersburg, MD, USA), 100 IU/ml penicillin, and 100 μg/ml streptomycin (Welgene, Daegu, South Korea).
as §1

Test [3] relates to hypoxia-mediated factors. As to the kind of experiment: Liver CID in vitro experiment, Western blot in HepG2 cells. In kind it is cell-based, Human. The following applies: 2.5 mM, HepG2 cells (liver epithelium). As for the experimental part:
Human Hepatocellular carcinoma cell line, HepG2, was purchased from American Type Culture Collection (Manassas, VA, USA). The HepG2 cells were maintained in RPMI 1640 containing 10% fetal bovine serum (Life Technologies, Gaithersburg, MD, USA), 100 IU/ml penicillin, and 100 μg/ml streptomycin (Welgene, Daegu, South Korea).
as §1
(In general: In western blotting, separated proteins are transferred to a membrane and probed.)

Test [4] deals with lactate dehydrogenase A. As to the kind of experiment: Immunocytochemistry of lactate dehydrogenase A in ARPE-19 cells. It counts as cell-based, Human. To be noted: 2.5 mM, normoxia. As for the experimental part: (§2) Human retinal pigment epithelium cell line, ARPE-19, was purchased from American Type Culture Collection (Manassas, VA, USA). The ARPE-19 cells were maintained in RPMI1640 containing 10% fetal bovine serum (Life Technologies, Gaithersburg, MD, USA), 100 IU/ml penicillin, and 100 μg/ml streptomycin (Welgene, Daegu, South Korea).
(§3) ARPE-19 and SK-N-SH cells were fixed on bio-coated coverslips (BD bioscience, San Jose, CA, USA) by 4% PFA for 20 min and then incubated with the primary antibodies for 15 h. The primary antibodies were as follows: HIF-1a (1:300, BD Biosciences, San Jose, CA, USA); LDH-A (1:300, Santa Cruz Biotechnology, Santa Cruz, CA, USA); LDH-B (1:300, Santa Cruz Biotechnology, Santa Cruz, CA, USA); NF-κB (1:300, Santa Cruz Biotechnology, Santa Cruz, CA, USA); TLR-4 (1:300, Santa Cruz Biotechnology, Santa Cruz, CA, USA); apoE (1:200, Santa Cruz Biotechnology, Santa Cruz, CA, USA). After PBS wash, the cells were incubated with anti-mouse secondary biotinylated antibody (1:2000, Vector Laboratorie, Burlingame, CA, USA) and visualized with streptavidin conjugated to Fluorescein (Vector Laboratorie, Burlingame, CA, USA). […] Confocal fluorescence images were obtained with confocal laser scanning microscopy (LSCM, Nikon A1+, Tokyo, Japan) under a 60× oil immersion lens.

Test [5] has as its system Apolipoprotein E. As to the kind of experiment: Immunocytochemistry of drusen marker Apolipoprotein E in ARPE-19 cells. It counts as cell-based, Human. The following applies: 2.5 mM, hypoxia. As for the experimental part:
as §2, §3

For test [6], the system named is LPS-induced periodontal disease rats. Description: Periodontal disease model, intragingival injection of LPS. It counts as in vivo, Sprague-Dawley (SD) rats. The following applies: 2 mg/kg daily subcutaneous 21 days. As for the experimental part:
Animals. […] Eight-week old male Sprague-Dawley (SD) rats were obtained from Samtako Co. (Osan, Gyeonggi-do, Republic of Korea) and bred under specific-pathogen-free (SPF) conditions. All animals were maintained in a 12-hour light/dark cycle at 22-25° C. with free access to food and water.
Dissolve 1 mg of LPS powder in 100 μl of saline. Keep the tubes on ice if LPS is going to be used fresh. For long storage, use screw cap vials are preferred. The aliquots were stored in a deep freezer (−20° C.). Calcium lactate was purchased from Sigma Aldrich (St. Louis, MO, USA).
Animal model for periodontal disease. Periodontal disease was induced by intragingival injection of LPS (1 mg/100 μl) in sterile saline. A fine hypodermic needle was inserted at the mesiolateral aspect of the first right mandibular molar and the tip moved distally so that the injection was made at the interdental papilla between the first and second molars. The injection was slowly made, and the needle held in place for 10 seconds post injection to ensure that the LPS was not lost through the needle track.
Histological analysis. […] Mount with mounting medium.

Test [7] deals with nonalcoholic steatohepatitis (NASH) mice. As to the kind of experiment: Liver CID (NASH) in vivo experiment, methionine-choline deficient (MCD) diet. To be noted: 2 mg/kg subcutaneous B.I.D.
Procedure: Female 5-week-old C57BL/6 mice were purchased form KOATEC (Pyeongtaek, South Korea) and were fed Methionine-Choline diet (MCD) for 4 weeks. When the mice weighed 15 g each, the mice were autopsied randomly to identify nonalcoholic steatohepatitis (NASH).
Mouse liver tissues (n=5) were dissected and fixed in 4% paraformaldehyde PBS solution for 15 h at 4° C. Fixed liver tissues were embedded in paraffin and sectioned at 10 μm. Slides were incubated at 55° C. for 2 h, and subsequently deparaffinized in xylene and rehydrated in a graded ethanol series and used for hematoxylin (Merck, Darmstadt, Germany) and eosin (H&E) staining (35). Paraffin sections (10 μm thick) stained with H&E were imaged using a Leica DM 1000 LED microscope (Leica Microsystems, Wetzlar, Germany).
Mouse liver tissues (n=5) were dissected and fixed in 4% paraformaldehyde PBS solution for 15 h at 4° C. Fixed tissues were embedded in paraffin and sectioned at 5 mm. Slides were incubated at 55° C. for 2 h, and subsequently deparaffinized in xylene and rehydrated in a graded ethanol series and re-fix in Bouin's solution for 1 hr at 56° C., remove the yellow color to rinse running tap water for 5-10 min and stained Biebrich scarlet-acid fuchsin solution for 5 min then in phosphomolybdic-phosphotungstic acid solution (ratio 1:1) for 30 minutes, and aniline blue solution and stain for 15 minutes. Rinse briefly in distilled water and in 1% acetic acid solution for 2-5 min. […] Mount with mounting medium. Imaged using a Leica DM 1000 LED microscope (Leica Microsystems, Wetzlar, Germany).
Animal Model for liver diseases. […] Female 5-week-old C57BL/6 mice were purchased form KOATEC (Pyeongtaek, South Korea) and were fed Methionine-Choline (MCD) diet for 4 weeks. […] Histological analysis. Mouse Liver tissues (n=5) were dissected and fixed in 4% paraformaldehyde PBS solution for 15 h at 4° C. Fixed liver tissues were embedded in paraffin and sectioned at 10 μm. Slides were incubated at 55° C. for 2 h, and subsequently deparaffinized in xylene and rehydrated in a graded ethanol series and used for hematoxylin (Merck, Darmstadt, Germany) and eosin (H&E) staining. Paraffin sections (10 μm thick) stained with H&E were imaged using a Leica DM 1000 LED microscope (Leica Microsystems, Wetzlar, Germany
Masson Trichrome Stain. Mouse Liver tissues (n=5) were dissected and fixed in 4% paraformaldehyde PBS solution for 15 h at 4° C. Fixed tissues were embedded in paraffin and sectioned at 5 mm. Slides were incubated at 55° C. for 2 h, and subsequently deparaffinized in xylene and rehydrated in a graded ethanol series and re-fix in Bouin's solution for 1 hr at 56° C., remove the yellow color to rinse running tap water at 5-10 min and stained Biebrich scarlet-acid fuchsin solution for 5 min than in phosphomolybdic-phosphotungstic acid solution (ratio 1:1) for minutes, and aniline blue solution and stain for 15 minutes. Rinse briefly in distilled water and in 1% acetic acid solution for 2-5 minutes. […] Mount with mounting medium. Imaged using a Leica DM 1000 LED microscope (Leica Microsystems, Wetzlar, Germany).
To induce NASH, mice were fed methionine-choline deficient (MCD) diet with polyunsaturated fat for 8 weeks. […] Results are MEAN±SD.

“Also recorded” adds a separate entry of the source.

With `CC(O)C(=O)[O-].CC(O)C(=O)[O-].[Ca+2]` (stereo not shown) [calcium lactate], in test [1], the “hypoxia inducible factor-1α (HIF-1α), Western blot” value is “decreased”. The “hypoxia-mediated factors, Western blot” value in test [2] is “decreased”. In test [3], the “hypoxia-mediated factors, Western blot” value is on record as “changed”. For the same molecule, the “lactate dehydrogenase A, immunocytochemistry” value in test [4] is “decreased”. Besides, the “drusen marker (Apolipoprotein E), immunocytochemistry” value in test [5] is reported as “decreased”. For the same molecule, in test [6], the “ligaments and gingiva around the root of tooth (Masson's trichrome)” value was “recovered”; the “morphology of the upper gum (Masson's trichrome)” value is on record as “recovered”. Besides, the “liver fibrosis (collagen accumulation)” value in test [7] (Masson trichrome) is recorded as “not present”. For the same molecule, in test [7] (P<0.001 vs. MCD), the “serum alanine aminotransferase (ALT)” value was “significantly decreased” and the “serum aspartate aminotransferase (AST)” value is reported as “significantly decreased”. In test [7] (histology), the “immune cell infiltration in the liver” value was “decreased”, the “lipid droplets in the liver” value was “not observed; also recorded: not present” and the liver steatosis result is on record as “prevented”.

The record behind these values is patent US12576107B2, “Methods of treating chronic inflammatory diseases” (METIMEDI PHARMACEUTICALS CO., LTD., priority 2018, dated 2026).
